Experimental data from ChEMBL document CHEMBL1201862, “PubChem BioAssay data set” (2004).
Activity calls are given as the source filed them. Rule as the data show it, for most assays here: actives have a measured EC50 and inactives only a lower limit.

Columns and labels:
[1] = system: Streptococcus sp. 'group A'; experiment: Streptococcus pyogenes SK(-)GAS viability under kanamycin – luminescence, BacTiterGlo, confirmation, counter-screen for streptokinase expression inhibitor project, dose response (AID 1900); type: functional, organism-based
Streptokinase A = molecular target: T1, Streptokinase A (Streptococcus pyogenes serotype M1, UniProt P10520); experiment: viability-normalized secreted streptokinase activity reduction – plasminogen activation absorbance, OD405, dose response (AID 1914); type: functional, Streptococcus pyogenes M1 GAS;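 also: secreted streptokinase activity via plasminogen activation per viability signal from cell pellet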
T1 sequence (P10520 whole entry): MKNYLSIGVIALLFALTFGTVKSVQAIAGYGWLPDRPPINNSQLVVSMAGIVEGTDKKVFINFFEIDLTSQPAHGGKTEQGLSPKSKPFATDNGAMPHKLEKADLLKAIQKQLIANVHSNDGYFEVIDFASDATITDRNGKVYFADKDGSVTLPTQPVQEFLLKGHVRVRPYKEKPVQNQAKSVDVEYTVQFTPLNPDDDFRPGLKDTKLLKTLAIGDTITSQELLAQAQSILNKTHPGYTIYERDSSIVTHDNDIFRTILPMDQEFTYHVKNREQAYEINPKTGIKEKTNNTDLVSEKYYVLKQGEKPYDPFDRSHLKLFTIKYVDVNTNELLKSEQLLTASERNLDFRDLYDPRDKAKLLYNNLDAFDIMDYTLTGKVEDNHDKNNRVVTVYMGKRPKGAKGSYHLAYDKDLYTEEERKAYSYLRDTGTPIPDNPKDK

Streptococcus = experiment: GAS UMAA2166 growth inhibition – luminescence, BacTiterGlo, counter-screen for streptokinase expression inhibitor project, dose response (AID 1915); type: functional, organism-based;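 also: potency for reduction of bacterial viability or growth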
[2] = molecular target: Luciferin 4-monooxygenase (Photinus pyralis, UniProt P08659); experiment: inhibition of purified Photinus pyralis luciferase – biochemical, luminescence, dose response (AID 1891)
[3] = Luminescence Cell-Based Dose Confirmation HTS to Identify Inhibitors of Platelet Dense Granule Release. [Related pubchem assays: 1663 (Primary HTS), 1678 (Summary of Project)]; type: functional
INS1 = experiment: INS-1E survival protection against cytokine death – cell-based, luminescence, retest, dose response (AID 449756); type: functional; settings: Rattus norvegicus;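 also: cell death triggered by IL-1 beta plus TNF-alpha plus IFN-gamma mixture; protective hits raise ATP signal compared with cytokine alone wells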
[4] = molecular target: T2, RNA-binding protein pos-1 (Caenorhabditis elegans, UniProt G5EF15); experiment: disruptors of C. elegans POS-1 RNA interaction – biochemical, fluorescence polarization, dose response (AID 1964);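 also: purified POS-1 fused to maltose binding protein made in E. coli; potency of compounds blocking POS-1 binding to fluorescent RNA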
T2 sequence (G5EF15 whole entry): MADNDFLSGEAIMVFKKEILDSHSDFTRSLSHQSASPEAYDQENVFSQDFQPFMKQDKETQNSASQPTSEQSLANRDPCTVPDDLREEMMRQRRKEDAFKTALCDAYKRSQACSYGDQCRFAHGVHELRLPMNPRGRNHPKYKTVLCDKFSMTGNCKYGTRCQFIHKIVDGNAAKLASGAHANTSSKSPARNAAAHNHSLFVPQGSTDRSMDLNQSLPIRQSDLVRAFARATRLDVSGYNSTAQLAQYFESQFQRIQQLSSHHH

[5] = molecular target: T3, Zinc finger protein mex-5 (Caenorhabditis elegans, UniProt Q9XUB2); experiment: potency of MEX-5 RNA-binding blockers – biochemical, C. elegans, fluorescence polarization, dose response (AID 1960)
T3 sequence (Q9XUB2 whole entry): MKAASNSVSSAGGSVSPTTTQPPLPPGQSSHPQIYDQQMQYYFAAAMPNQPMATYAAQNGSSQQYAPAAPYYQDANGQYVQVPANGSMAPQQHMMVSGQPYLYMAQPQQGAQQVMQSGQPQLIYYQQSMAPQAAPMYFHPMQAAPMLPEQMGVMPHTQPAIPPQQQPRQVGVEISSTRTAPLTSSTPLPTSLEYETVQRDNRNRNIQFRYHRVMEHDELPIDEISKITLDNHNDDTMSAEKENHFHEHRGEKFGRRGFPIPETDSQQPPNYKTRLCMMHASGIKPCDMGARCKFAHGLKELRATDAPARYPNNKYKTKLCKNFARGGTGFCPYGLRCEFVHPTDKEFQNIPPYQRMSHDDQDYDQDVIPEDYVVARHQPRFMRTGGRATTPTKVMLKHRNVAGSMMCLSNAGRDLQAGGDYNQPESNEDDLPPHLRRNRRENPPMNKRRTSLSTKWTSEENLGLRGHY

[6] = Luminescence Cell-Based Dose Confirmation HTS to Identify Activators of 5'UTR Stem-Loop Driven Alpha-Synuclein mRNA Translation in H4 Neuroglioblastoma Cells. [Related pubchem assays: 1829 (Project Summary), 1814 (Primary HTS)]; type: functional
[7] = Luminescence Cell-Based Dose Response HTS to Identify Activators of Luciferase Translation or Activity in H4 […] Cells. [Related pubchem assays: 1829 (Project Summary), 1814 (Primary HTS)]; type: functional
H4 = experiment: Luminescence Cell-Based Dose Response HTS to Identify Activators of 5'UTR Stem-Loop Driven Prion Protein mRNA Translation in H4 Neuroglioblastoma Cells. [Related pubchem assays: 1829 (Project Summary), 1814 (Primary HTS)]; type: functional; settings: Homo sapiens
[8] = Trypanosoma cruzi growth suppression in host cells – NIH3T3 host cells, beta-gal luminescence, confirmation (AID 2044); type: functional, cell-based;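 also: intracellular parasites grown in NIH/3T3 mouse fibroblasts as host cells; luminescent beta-galactosidase reporter signal from transgenic T. cruzi replicating inside host cells; inhibitors lower the luminescence signal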
[9] = NIH3T3 cell viability loss – ATP luminescence, mouse fibroblasts, counter-screen, dose response (AID 2010); type: functional, cell-based;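 also: cells exposed to compound for about 90 hours before reading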
[10] = Luminescence Cell-Based Dose Retest to Confirm Inhibitors of Cancer Stem Cells. [Related pubchem assays (depositor defined):AID2717, AID2721]; type: functional; settings: Homo sapiens
Cytochrome P450 2D6 = Cytochrome P450 2D6 (Homo sapiens, UniProt P10635);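 also: CYP2D6 member of a cytochrome P450 panel assay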
[11] = molecular target: T4, Heat shock factor protein 1 (Mus musculus, UniProt P38532); experiment: decrease of HSF1-responsive luciferase luminescence – cell-based, NIH3T3, dose retest, confirmation (AID 2382); type: functional;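 also: NIH3T3 fibroblasts with HSF1-driven luciferase reporter stressed by proteasome inhibitor MG132; luminescence from HSF1-driven luciferase expression after 8 hours of MG132 stress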
T4 sequence (P38532 whole entry): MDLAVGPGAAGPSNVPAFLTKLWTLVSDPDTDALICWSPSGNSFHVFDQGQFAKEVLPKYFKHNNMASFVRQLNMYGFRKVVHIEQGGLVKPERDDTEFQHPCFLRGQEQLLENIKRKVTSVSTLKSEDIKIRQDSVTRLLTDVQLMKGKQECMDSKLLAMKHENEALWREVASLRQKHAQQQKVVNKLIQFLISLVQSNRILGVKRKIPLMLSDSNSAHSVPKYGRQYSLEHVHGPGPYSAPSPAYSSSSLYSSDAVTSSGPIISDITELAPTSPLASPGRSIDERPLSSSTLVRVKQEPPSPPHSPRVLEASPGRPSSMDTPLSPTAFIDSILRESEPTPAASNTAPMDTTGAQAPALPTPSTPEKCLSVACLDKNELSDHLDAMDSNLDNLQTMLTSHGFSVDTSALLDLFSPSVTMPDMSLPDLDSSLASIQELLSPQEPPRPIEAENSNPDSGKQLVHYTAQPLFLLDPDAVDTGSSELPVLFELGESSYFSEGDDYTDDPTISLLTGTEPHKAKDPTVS

Cytochrome P450 2C9 = Cytochrome P450 2C9 (Homo sapiens, UniProt P11712)
[12] = molecular target: T5, Rac GTPase-activating protein 1 (Homo sapiens, UniProt Q9H0H5); experiment: blockers of MgcRacGAP-driven Rac1 GTP hydrolysis – biochemical, ADP Hunter fluorescence, primary and confirmatory, confirmation (AID 624330); type: functional
T5 sequence (Q9H0H5 whole entry): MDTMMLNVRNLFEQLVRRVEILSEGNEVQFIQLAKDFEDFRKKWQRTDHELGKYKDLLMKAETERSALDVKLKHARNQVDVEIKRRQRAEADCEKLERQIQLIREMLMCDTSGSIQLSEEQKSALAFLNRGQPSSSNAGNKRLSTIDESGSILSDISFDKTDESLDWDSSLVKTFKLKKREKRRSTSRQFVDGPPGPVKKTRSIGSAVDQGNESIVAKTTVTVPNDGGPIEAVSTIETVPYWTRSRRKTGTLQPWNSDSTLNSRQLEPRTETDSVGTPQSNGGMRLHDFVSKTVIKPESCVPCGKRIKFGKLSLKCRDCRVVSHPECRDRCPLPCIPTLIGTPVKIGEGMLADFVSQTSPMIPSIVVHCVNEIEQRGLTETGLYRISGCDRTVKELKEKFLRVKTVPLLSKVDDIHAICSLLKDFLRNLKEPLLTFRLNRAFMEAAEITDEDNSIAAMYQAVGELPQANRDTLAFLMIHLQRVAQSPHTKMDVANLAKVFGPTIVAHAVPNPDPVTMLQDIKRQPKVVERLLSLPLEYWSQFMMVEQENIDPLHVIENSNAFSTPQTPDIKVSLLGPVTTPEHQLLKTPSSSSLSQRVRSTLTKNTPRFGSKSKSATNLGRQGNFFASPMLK

Sequence of Luciferin 4-monooxygenase (P08659 whole entry): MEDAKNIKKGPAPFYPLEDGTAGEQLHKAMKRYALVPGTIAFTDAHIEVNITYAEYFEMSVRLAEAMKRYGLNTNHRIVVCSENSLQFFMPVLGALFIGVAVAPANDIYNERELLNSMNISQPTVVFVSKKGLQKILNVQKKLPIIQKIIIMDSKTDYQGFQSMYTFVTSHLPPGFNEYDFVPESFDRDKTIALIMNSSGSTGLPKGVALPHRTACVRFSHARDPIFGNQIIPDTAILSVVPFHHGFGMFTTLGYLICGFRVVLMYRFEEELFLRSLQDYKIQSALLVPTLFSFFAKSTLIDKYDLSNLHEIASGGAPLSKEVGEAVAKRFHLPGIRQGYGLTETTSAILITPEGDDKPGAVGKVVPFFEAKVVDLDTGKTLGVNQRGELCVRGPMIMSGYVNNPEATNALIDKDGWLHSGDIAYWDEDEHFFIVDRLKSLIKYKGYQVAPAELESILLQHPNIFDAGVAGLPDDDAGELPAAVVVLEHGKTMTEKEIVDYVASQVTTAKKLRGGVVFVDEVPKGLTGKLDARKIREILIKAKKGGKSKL
Sequence of Cytochrome P450 2C9 (P11712 whole entry): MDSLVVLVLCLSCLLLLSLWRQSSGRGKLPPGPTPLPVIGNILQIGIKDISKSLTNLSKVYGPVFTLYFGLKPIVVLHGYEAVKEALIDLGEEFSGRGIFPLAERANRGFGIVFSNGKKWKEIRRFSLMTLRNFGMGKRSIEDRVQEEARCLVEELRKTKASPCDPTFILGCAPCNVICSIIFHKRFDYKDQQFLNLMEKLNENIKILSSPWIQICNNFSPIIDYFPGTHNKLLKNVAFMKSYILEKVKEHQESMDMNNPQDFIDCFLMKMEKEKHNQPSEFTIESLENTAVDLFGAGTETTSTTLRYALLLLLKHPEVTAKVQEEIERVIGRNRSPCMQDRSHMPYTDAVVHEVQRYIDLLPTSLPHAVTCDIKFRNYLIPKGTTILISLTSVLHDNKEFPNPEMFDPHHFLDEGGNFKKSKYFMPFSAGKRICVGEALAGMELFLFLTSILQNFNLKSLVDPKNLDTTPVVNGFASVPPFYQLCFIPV
Sequence of Cytochrome P450 2D6 (P10635 whole entry): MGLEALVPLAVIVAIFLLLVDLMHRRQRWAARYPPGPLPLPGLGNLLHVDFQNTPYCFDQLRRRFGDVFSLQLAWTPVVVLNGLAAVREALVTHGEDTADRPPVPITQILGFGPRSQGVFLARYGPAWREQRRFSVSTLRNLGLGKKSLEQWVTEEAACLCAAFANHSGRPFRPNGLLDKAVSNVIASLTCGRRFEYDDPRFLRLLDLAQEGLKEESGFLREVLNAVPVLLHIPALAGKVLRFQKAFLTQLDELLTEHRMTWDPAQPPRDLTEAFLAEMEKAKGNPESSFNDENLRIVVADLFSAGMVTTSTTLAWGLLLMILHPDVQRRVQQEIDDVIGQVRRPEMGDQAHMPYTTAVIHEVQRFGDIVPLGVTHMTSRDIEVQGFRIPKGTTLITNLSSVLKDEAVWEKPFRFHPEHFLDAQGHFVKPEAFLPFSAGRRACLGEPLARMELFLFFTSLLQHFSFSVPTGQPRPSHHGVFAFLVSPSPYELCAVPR

Row | Structure (SMILES) | EC50 [1] | EC50 (Streptokinase A) | EC50 (Streptococcus) | EC50 [6] | EC50 [7] | EC50 (H4) | also measured
1 | CCc1sc(N(C(=O)Cc2ccccc2)c2ccc(F)cc2)nc1-c1ccccc1 | > 150 µM (not active) | 11.8 µM (active) | > 150 µM (not active) | – | – | – | –
2 | Cc1cccc(NC(S)=Nc2ccc3c[nH]nc3c2)c1 | – | – | – | – | – | – | EC50 [2]: > 112 µM (not active); EC50 [3]: > 112 µM (not active); AC50 (INS1): > 260 µM (inactive)
3 | CC(C)C[C@H](NC(=O)N1CC(=O)Nc2ccccc21)C(=O)N[C@H](C(=O)O)c1ccccc1 | > 150 µM (not active) | > 150 µM (not active) | > 150 µM (not active) | – | – | – | –
4 | O=C(c1ccc(F)cc1)N1CCN(C2CCC(c3ccccc3)CC2)CC1 (configuration not stated) | – | – | – | – | – | – | EC50 [4]: > 300 µM (not active); EC50 [5]: > 300 µM (not active)
5 | c1ccn2c(c1)nc1c2nc2ccccn21 | – | – | – | 7.67 µM (active) | 25.1 µM (active) | > 120 µM (not active) | –
6 | CCCCn1c(CCCNC(=O)c2ccco2)nc2ccccc21 | > 150 µM (not active) | > 150 µM (not active) | > 150 µM (not active) | – | – | – | –
7 | Oc1nc(CN2CCN(C/C=C/c3ccccc3)CC2)nc2ccccc12 | – | – | – | > 120 µM (not active) | > 120 µM (not active) | > 120 µM (not active) | EC50 [8]: 0.637 µM (active); EC50 [9]: > 60 µM (not active)
8 | C=CCOc1c(Cl)cc(C(=S)N2CCCC2)cc1OCC | – | – | – | > 120 µM (not active) | > 120 µM (not active) | 30.3 µM (active) | –
9 | Cc1cc(C(=O)COC(=O)Cc2nnc(O)c3ccccc23)c(C)n1-c1ccc2c(c1)OCCO2 | – | – | – | > 120 µM (not active) | > 120 µM (not active) | 71.5 µM (active) | EC50 [8]: 2.28 µM (active); EC50 [9]: > 60 µM (not active)
10 | COC(=O)/C(C#N)=C/c1c(Oc2cc(C)cc(C)c2)nc2c(C)cccn2c1=O | – | – | – | – | – | – | EC50 [4]: 104 µM (active); EC50 [5]: > 300 µM (not active)
11 | Cc1ccc2cc(CN(Cc3cccs3)C(=O)c3ccco3)c3nnnn3c2c1C | 2.28 µM (active) | > 150 µM (not active) | 31.7 µM (active) | – | – | – | –
12 | O=C(C1CCCN(c2ncnc3c2nc2n3CCCCC2)C1)N1CCN(c2ccccc2)CC1 (configuration not stated) | – | – | – | > 120 µM (not active) | > 120 µM (not active) | > 120 µM (not active) | –
13 | CC(C)(C)c1cc(C(=O)NNc2cc(C(F)(F)F)ccc2Cl)n(Cc2ccccc2)n1 | 3.24 µM (active) | > 150 µM (not active) | 8.74 µM (active) | – | – | – | AC50 [10]: 3.81 µM (active)
14 | COc1ccc(NC(=O)CCl)cn1 | – | – | – | – | – | – | EC50 [4]: 9.67 µM (active); EC50 [5]: 8.06 µM (active)
15 | Clc1ccc(N2COC3c4cccc5cccc(c45)C32)cc1 (configuration not stated) | 17.4 µM (active) | 14.2 µM (active) | > 150 µM (not active) | – | – | – | –
16 | Fc1ccc(C2=CC(c3ccco3)n3ncnc3N2)cc1 (configuration not stated) | – | – | – | – | – | – | EC50 [4]: 14.7 µM (active); EC50 [5]: 12.8 µM (active)
17 | COCC(=O)N1CCC2(CCN(Cc3ccccc3)CC2)CC1 | – | – | – | – | – | – | AC50 (Cytochrome P450 2D6): 25.1 µM (inconclusive)
18 | COCCNC(=O)C1Nc2ccc(OC(F)(F)F)cc2C2C=CCC12 (configuration not stated) | – | – | – | – | – | – | EC50 [4]: > 300 µM (not active); EC50 [5]: > 300 µM (not active)
19 | COc1cc2c(cc1NC(=O)CN1CCN(S(=O)(=O)c3ccccc3F)CC1)oc1ccccc12 | – | – | – | > 120 µM (not active) | > 120 µM (not active) | > 120 µM (not active) | –
20 | CC1Cc2nc(SCC(=O)Nc3ccc4c(c3)OCO4)n(Cc3ccccc3)c(=O)c2S1 (configuration not stated) | – | – | – | 10.8 µM (active) | 5.9 µM (active) | 13.2 µM (active) | –
21 | CCc1ccc2[nH]c(O)c(N=Nc3nc(-c4ccccc4)cs3)c2c1 | 9.51 µM (active) | > 150 µM (not active) | 27.3 µM (active) | – | – | – | EC50 [11]: > 195 µM (not active); AC50 (Cytochrome P450 2C9): 39.8 µM (inconclusive)
22 | CC(C)[C@@H]1COC(c2cccc(C3=N[C@H](C(C)C)CO3)c2)=N1 | – | – | – | > 120 µM (not active) | 71.1 µM (active) | 10.6 µM (active) | –
23 | Cc1ccc(O)c(/C=N/NC(=O)Cc2ccc(Cl)cc2)c1 | 3.25 µM (active) | > 150 µM (not active) | 13.6 µM (active) | – | – | – | –
24 | COc1cc(/C=N/c2oc(-c3ccccc3)cc2C#N)ccc1O | – | – | – | – | – | – | EC50 [4]: > 300 µM (not active); EC50 [5]: > 300 µM (not active)
25 | Nc1c(Cl)ncnc1N/N=C/c1ccc(O)cc1 | – | – | – | – | – | – | EC50 [2]: 7.55 µM (active); EC50 [3]: 0.779 µM (active); IC50 [12]: 16.5 µM (active)
26 | CC(C)C(C(=O)Nc1nccs1)c1ccc(Cl)cc1 (configuration not stated) | 12.7 µM (active) | > 150 µM (not active) | > 150 µM (not active) | – | – | – | –
